# Data: patent publication US11420984B2, “Arginase inhibitors and methods of use thereof” (AstraZeneca AB, priority 2018, dated 2022)
# Like-named read-outs stand apart in the source and are kept apart here. Marks after values point to notes of the source that are not given here.
# Tests used:
# [1] = Bioavailability / pharmacokinetic study in male rats (IV and PO); type: in vivo; details: Example 7 when dosed as payload, male rat
# [2] = as above; type: in vivo, rat; details: plasma; for Vd: read-out: Vdss
# Protocol: Example 8 was formulated in 0.9% w/v saline pH 4 (adjusted with 1M HCl) for IV dosing. The formulation was dosed at 2 mg/kg by femoral catheter to two male rats each (170-250 g). Jugular vein catheter serial blood samples were taken at 0.033, 0.083, 0.167, 0.5, 1, 2, 4, 8, and 24 hrs post-dose. For PO dosing, Example 8 was formulated in deionized water pH 4 (adjusted with 1M HCl) and dosed at 5 mg/kg by oral gavage to two male rats each (170-250 g). Serial blood samples were taken by jugular vein catheter at 0.25, 0.5, 1, 1.5, 2, 3, 4, 8, and 24 hrs post dose. Plasma samples were generated from blood using low speed centrifugation. […] The samples and standards were extracted by precipitation with two volumes of acetonitrile followed by centrifugation. […] Where appropriate, measured and not nominal doses were used to calculate bioavalability.
# Human Arginase 2 = Human Arginase 2 (Homo sapiens (Human), UniProt P78540); assay: Human Arginase 2 enzyme inhibition (thioarginine/DTNB absorbance assay); type: biochemical; details: recombinant enzyme 5 nM, 0.5 mM thioarginine premix, 60 min
# Chain of Human Arginase 2 (P78540 23-354): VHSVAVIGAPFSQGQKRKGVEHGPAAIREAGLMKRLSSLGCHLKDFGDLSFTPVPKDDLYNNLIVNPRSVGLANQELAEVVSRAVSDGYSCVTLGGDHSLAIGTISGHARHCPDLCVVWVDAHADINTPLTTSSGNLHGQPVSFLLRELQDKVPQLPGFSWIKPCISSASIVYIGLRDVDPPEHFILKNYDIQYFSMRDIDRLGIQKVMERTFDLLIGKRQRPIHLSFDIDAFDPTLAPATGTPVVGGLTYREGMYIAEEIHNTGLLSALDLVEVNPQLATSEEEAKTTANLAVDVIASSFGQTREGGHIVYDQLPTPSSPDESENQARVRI
# Protocol: (§1) The thiol group was detected with Ellman's reagent, 5,5′-dithiobis(2-nitrobenzoic acid) (DTNB). DTNB reacts with the thiol to give the mixed disulfide and 2-nitro-5-thiobenzoic acid (TNB) which is quantified by the absorbance of the anion (TNB^2−) at 412 nm.
# (§2) The assays were run in clear 384 well plates (Greiner cat no: 781101). […] Two pre-mixes were prepared from reagents thawed immediately before addition to assay plates. Pre-mix one comprised human Arginase 1 or human Arginase 2, at a final concentration of 5 nM and 0.5 mM DTNB in assay buffer, 45 mM HEPES pH7.5, brij 35, 0.045% (w/v) and 100 μM MnCl2. Pre-mix two comprised freshly thawed 0.5 mM thioarginine in assay buffer.
# (§3) Assay plates were centrifuged prior to reading absorbance at 412 nm in a Pherastar multi-mode plate reader to collect data at time point 0 (T0). The plates were incubated at room temperature for 60 min prior to reading again to collect data at time point 1 (T1). Data is derived by subtracting the A412 signal measured at T0 (time point 0) from that measured at T1 (time point 1). The data was transformed to % effect using the equation: Compound % effect=100*[(X−min)/(max−min)], where X represents the normalized value for the compound based on the Min (vehicle) and Max (reference compound) inhibition control.
# Human Arginase 1 = Human Arginase 1 (Homo sapiens (Human), UniProt P05089); assay: Human Arginase 1 enzyme inhibition (thioarginine/DTNB absorbance assay); type: biochemical; details: recombinant enzyme 5 nM, 0.5 mM thioarginine premix, 60 min
# Chain of Human Arginase 1 (P05089 whole entry): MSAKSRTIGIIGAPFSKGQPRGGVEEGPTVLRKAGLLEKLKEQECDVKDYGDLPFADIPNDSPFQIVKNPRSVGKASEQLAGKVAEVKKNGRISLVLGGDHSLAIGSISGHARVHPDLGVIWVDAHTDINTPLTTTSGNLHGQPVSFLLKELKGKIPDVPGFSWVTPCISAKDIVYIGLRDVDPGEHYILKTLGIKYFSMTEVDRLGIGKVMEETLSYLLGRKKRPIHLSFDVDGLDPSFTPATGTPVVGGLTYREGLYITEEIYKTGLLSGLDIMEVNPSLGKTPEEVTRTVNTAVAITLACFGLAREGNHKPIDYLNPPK
# Protocol: as §1, §2, §3
# [3] = Interconversion of Compound B to Compound A observed by NMR; type: physicochemical
# Excerpt: Compound B (Example 19) was obtained by the intramolecular cyclization of Example 9 (Compound A) via an interconversion process. Furthermore, interconversions between Compound A (Example 9) and Compound B were observed under various conditions. For example, Compound B was converted to Compound A in the presence of water and such conversion was proportional to the concentration of water in the solvent. […] In d6-DMSO, compound B predominates, while there is a proportional increase in compound A with increase in D2O concentration. The proportion of compound A relative to compound B in 100% D2O reaches approximately 90%. Furthermore, Compound B was converted to Compound A under acidic condition.
# [4] = pro-drug itself, observed when dosed as pro-drug, male rat, IV 2 mg/kg
# [5] = pro-drug itself, observed when dosed as pro-drug, male rat, PO 5 mg/kg
Cl (mL/min/kg) [1],Vdss (L/kg) [1],"clearance ([2]; male, rat, iv) [mL/min/kg]","Vd ([2]; male, rat, iv) [L/kg]",IC50 (Human Arginase 2) [nM],IC50 (Human Arginase 1) [nM],conversion to compound A under acidic condition ([3]; compound B in 0.1 M DCl in D2O),proportion of compound A relative to compound B ([3]; compound B in 100% D2O),"clearance [2, 4] [mL/min/kg]","Vd [2, 4] [L/kg]","AUC [2, 5] [µM·h]","Cmax [2, 5] [nM]","Tmax [2, 5] [min]","bioavailability ([2]; pro-drug itself, observed when dosed as pro-drug, male rat, PO 5 mg/kg vs IV 2 mg/kg) [%]",Structure (SMILES)
8.90 * mL/min/kg,0.26 * L/kg,8.9,0.26,,,,,,,,,,,"N[C@H]1CN[C@@](CCCCB(O)O)(C(=O)O)C1 [Example 7, (2R,4R)-4-amino-2-(4-boronobutyl)pyrrolidine-2-carboxylic acid]"
,,,,280,220,almost complete conversion to compound A,approximately 90%,36.8,0.2,0.21,330,15,2.5,"CC(C)[C@H](N)C(=O)N[C@H]1CN[C@]2(CCCCB(O)OC2=O)C1 [Example 19, (S)-2-amino-N-((3R,5R)-8-hydroxy-6-oxo-7-oxa-1-aza-8-boraspiro[4.7]dodecan-3-v1)-3-methylbutanamide]"
,,,,380,320,,,317,0.64,,,,,"COC[C@H](N)C(=O)N[C@H]1CN[C@@](CCCCB(O)O)(C(=O)O)C1 [Example 18, (2R,4R)-4-((S)-2-amino-3-methoxypropanamido)-2-(4-boronobutyl)pyrrolidine-2-carboxylic acid]"
